Experimental data as given in PubChem BioAssay (NCI).
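Cells were grown in 96-well plates and exposed to each compound for 48 hours at five concentrations; endpoints were interpolated linearly between bracketing concentrations, or set to the highest concentration if not reached. The concentration for 50% growth inhibition is given as GI50. TGI denotes the concentration required for complete inhibition of growth.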

How the values were obtained:
Test in all cases: DTP human tumour cell line panel, 48 h
[1] = system: TK-10 renal
[2] = system: SN12C renal
[3] = system: RXF 393 renal
[4] = system: UACC-62 melanoma
[5] = system: PC-3 prostate
[6] = system: SK-MEL-28 melanoma
[7] = system: MALME-3M melanoma
[8] = system: SF-539 CNS
[9] = system: MDA-MB-231 breast
[10] = system: RPMI-8226 leukemia
[11] = system: EKVX NSCLC
[12] = system: OVCAR-3 ovarian
[13] = system: HS 578T breast
[14] = system: NCI-H522 lung
[15] = system: HCT-116 colon
[16] = system: SK-MEL-2 melanoma
[17] = system: SNB-75 CNS
[18] = system: HCT-15 colon
[19] = system: COLO 205 colon
[20] = system: CCRF-CEM leukemia
[21] = system: M14 melanoma
[22] = system: HOP-92 NSCLC
[23] = system: NCI-H460 lung
[24] = system: HL-60(TB) leukemia
[25] = system: SR leukemia
[26] = system: LOX IMVI melanoma
[27] = system: UO-31 renal
[28] = system: NCI-H23 lung
[29] = system: BT-549 breast
[30] = system: A549 NSCLC
[31] = system: K-562 leukemia
[32] = system: SK-MEL-5 melanoma
[33] = system: UACC-257 melanoma
[34] = system: 786-0 renal
[35] = system: U251 CNS
[36] = system: T-47D breast
[37] = system: HT29 colon
[38] = system: IGROV1 ovarian
[39] = system: SW-620 colon
[40] = system: SF-268 CNS
[41] = system: SK-OV-3 ovarian
[42] = system: ACHN renal
[43] = system: MOLT-4 leukemia
[44] = system: CAKI-1 renal
[45] = system: HCC-2998 colon
[46] = system: OVCAR-5 ovarian
[47] = system: KM12 colon
[48] = system: MDA-MB-435
[49] = system: SNB-19 CNS
[50] = system: NCI/ADR-RES ovarian
[51] = system: DU-145 prostate
[52] = system: HOP-62 NSCLC
[53] = system: A498 renal
[54] = system: OVCAR-8 ovarian
[55] = system: SF-295 CNS
[56] = system: MCF7 breast
[57] = system: NCI-H226 lung
[58] = system: OVCAR-4 ovarian

Structure (SMILES): COc1cc2c3c(n(CCCN4CCC[C@H]4C(N)=O)c(=O)c2cc1OC)-c1cc2c(cc1C3=O)OCO2
- GI50 [1]: > 42300 nM
- TGI [1]: > 100000 nM
- GI50 [2]: 42.2 nM
- TGI [2]: > 52400 nM
- GI50 [3]: 167 nM
- TGI [3]: 2320 nM
- GI50 [4]: 19.3 nM
- TGI [4]: 3210 nM
- GI50 [5]: 329 nM
- TGI [5]: 22600 nM
- GI50 [6]: 1880 nM
- TGI [6]: > 100000 nM
- GI50 [7]: 375 nM
- TGI [7]: > 57000 nM
- GI50 [8]: 29.6 nM
- TGI [8]: 541 nM
- GI50 [9]: 1160 nM
- TGI [9]: 16200 nM
- GI50 [10]: 82.9 nM
- TGI [10]: 2360 nM
- TGI [11]: > 100000 nM
- GI50 [12]: 161 nM
- TGI [12]: 3660 nM
- GI50 [13]: > 100000 nM
- TGI [13]: > 100000 nM
- GI50 [14]: 23.6 nM
- TGI [14]: 4480 nM
- GI50 [15]: 32.2 nM
- TGI [15]: 3670 nM
- GI50 [16]: > 100000 nM
- TGI [16]: > 100000 nM
- GI50 [17]: 30.1 nM
- TGI [17]: 1200 nM
- GI50 [18]: 318 nM
- TGI [18]: 5800 nM
- GI50 [19]: 223 nM
- TGI [19]: > 100000 nM
- GI50 [20]: < 14.6 nM
- TGI [20]: 4600 nM
- GI50 [21]: 35.8 nM
- TGI [21]: 2460 nM
- GI50 [22]: 808 nM
- TGI [22]: > 29500 nM
- GI50 [23]: < 15.2 nM
- GI50 [24]: 37.1 nM
- TGI [24]: 3700 nM
- TGI [25]: 540 nM
- GI50 [26]: 19.3 nM
- TGI [26]: 485 nM
- GI50 [27]: 40.9 nM
- TGI [27]: > 41000 nM
- GI50 [28]: 44.8 nM
- TGI [28]: 2320 nM
- GI50 [29]: 70.7 nM
- TGI [29]: 13900 nM
- GI50 [30]: 103 nM
- TGI [30]: > 57300 nM
- GI50 [31]: 41 nM
- TGI [31]: 2580 nM
- GI50 [32]: 40.7 nM
- TGI [32]: 199 nM
- GI50 [33]: 232 nM
- TGI [33]: > 100000 nM
- GI50 [34]: 39.2 nM
- TGI [34]: 1530 nM
- GI50 [35]: 24.9 nM
- TGI [35]: 1890 nM
- GI50 [36]: 31.3 nM
- GI50 [37]: 67.4 nM
- TGI [37]: 671 nM
- GI50 [38]: 379 nM
- TGI [38]: 34900 nM
- GI50 [39]: 89.7 nM
- TGI [39]: > 48200 nM
- GI50 [40]: 39.8 nM
- TGI [40]: > 100000 nM
- GI50 [41]: 39.6 nM
- TGI [41]: 1260 nM
- GI50 [42]: 27.4 nM
- TGI [42]: 3860 nM
- GI50 [43]: < 12.5 nM
- TGI [43]: 178 nM
- GI50 [44]: 16.2 nM
- TGI [44]: 20700 nM
- GI50 [45]: 224 nM
- TGI [45]: 13800 nM
- GI50 [46]: 319 nM
- TGI [46]: 26500 nM
- GI50 [47]: 415 nM
- TGI [47]: 11100 nM
- GI50 [48]: 148 nM
- TGI [48]: 14000 nM
- GI50 [49]: 40.5 nM
- TGI [49]: > 100000 nM
- GI50 [50]: 154 nM
- TGI [50]: > 100000 nM
- GI50 [51]: 38.2 nM
- TGI [51]: 12600 nM
- GI50 [52]: 29.3 nM
- TGI [52]: 12700 nM
- TGI [53]: > 100000 nM
- GI50 [54]: 78.3 nM
- TGI [54]: 2710 nM
- GI50 [55]: 17.9 nM
- TGI [55]: 15000 nM
- GI50 [56]: < 10.7 nM
- TGI [56]: 1420 nM
- GI50 [57]: 48.1 nM
- TGI [57]: 1180 nM
- GI50 [58]: 905 nM
- TGI [58]: 5690 nM
